Laboratory results published in US12492188B2, “1H-benzo[D]imidazole derivatives as TLR9 inhibitors for the treatment of fibrosis” (BRISTOL-MYERS SQUIBB COMPANY, priority 2020, dated 2025).
Read-outs that look alike come from different tables or passages of the source.

Assays:
Assay type in all cases: cell-based
human TLR7 = molecular target: T1, human TLR7 (Homo sapiens, UniProt Q9NYK1); assay: TLR7 inhibition reporter assay (HEK-Blue cells, secreted embryonic alkaline phosphatase reporter); settings: HEK-Blue cells overexpressing human TLR7, stimulated with gardiquimod 7.5 μM; read-out: TLR 7 IC50
T1 construct: host or cells: HEK-Blue cells (HEK293-derived reporter line)
T1 sequence (Q9NYK1 27-1049): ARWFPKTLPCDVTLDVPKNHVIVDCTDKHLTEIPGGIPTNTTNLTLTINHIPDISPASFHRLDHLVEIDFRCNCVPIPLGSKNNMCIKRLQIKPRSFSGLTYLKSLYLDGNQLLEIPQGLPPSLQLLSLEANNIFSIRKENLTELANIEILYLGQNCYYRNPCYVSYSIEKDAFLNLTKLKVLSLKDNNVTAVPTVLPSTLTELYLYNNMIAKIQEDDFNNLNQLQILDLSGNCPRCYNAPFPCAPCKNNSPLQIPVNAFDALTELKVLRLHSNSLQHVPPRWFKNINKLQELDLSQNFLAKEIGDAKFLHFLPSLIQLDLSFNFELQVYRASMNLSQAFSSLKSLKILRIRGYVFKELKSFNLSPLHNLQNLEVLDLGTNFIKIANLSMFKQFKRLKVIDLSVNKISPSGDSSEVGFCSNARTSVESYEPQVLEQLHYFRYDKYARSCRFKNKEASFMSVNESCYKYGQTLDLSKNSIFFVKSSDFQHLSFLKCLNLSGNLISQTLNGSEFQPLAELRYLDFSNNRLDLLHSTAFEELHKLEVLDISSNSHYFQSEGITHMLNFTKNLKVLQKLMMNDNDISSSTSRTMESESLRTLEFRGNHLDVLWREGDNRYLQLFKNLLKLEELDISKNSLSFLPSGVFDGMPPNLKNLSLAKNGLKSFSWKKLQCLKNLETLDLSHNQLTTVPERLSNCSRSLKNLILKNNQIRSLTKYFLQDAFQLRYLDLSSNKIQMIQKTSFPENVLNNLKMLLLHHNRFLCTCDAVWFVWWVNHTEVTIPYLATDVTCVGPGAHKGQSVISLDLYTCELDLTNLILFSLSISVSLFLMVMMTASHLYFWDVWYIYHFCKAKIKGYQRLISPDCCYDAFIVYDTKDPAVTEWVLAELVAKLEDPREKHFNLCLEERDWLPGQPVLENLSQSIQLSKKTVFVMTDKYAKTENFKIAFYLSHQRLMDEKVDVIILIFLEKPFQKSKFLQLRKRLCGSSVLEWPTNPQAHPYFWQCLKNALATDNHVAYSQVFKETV
Method: (§1) TLR7/8/9 Inhibition Reporter Assays
(§2) HEK-Blue™-cells (Invivogen) overexpressing human TLR7, TLR8 or TLR9 receptors were used for screening inhibitors of these receptors using an inducible SLAP (secreted embryonic alkaline phosphatase) reporter gene under the control of the […] minimal promoter fused to five NF-κB and AP-1-binding sites. Briefly, cells are seeded into Greiner 384 well plates (15000 cells per well for TLR7, 20,000 for TLR8 and 25,000 for TLR9) and then treated with test compounds in DMSO to yield a final dose response concentration range of 0.05 nM-50 μM. After a 30 minute compound pre-treatment at room temperature, the cells are then stimulated with a TLR7 ligand (gardiquimod at a final concentration of 7.5 μM), TLR8 ligand (R848 at a final concentration of 15.9 μM) or TLR9 ligand (ODN2006 at a final concentration of 5 nM) to activate NF-κB and AP-1 which induce the production of SLAP. After a 22 hour incubation at 37° C., […], SLAP levels are determined with the addition of HEK-Blue™ Detection reagent (Invivogen), a cell culture medium that allows for detection of SLAP, according to manufacturer's specifications. The percent inhibition is determined as the […] in the HEK-Blue signal present in wells treated with agonist plus DMSO alone compared to wells treated with a known inhibitor.

human TLR8 = molecular target: T2, human TLR8 (Homo sapiens, UniProt Q9NR97); assay: TLR8 inhibition reporter assay (HEK-Blue cells, secreted embryonic alkaline phosphatase reporter); settings: HEK-Blue cells overexpressing human TLR8, stimulated with R848 15.9 μM; read-out: TLR 8 IC50
T2 construct: host or cells: HEK-Blue cells (HEK293-derived reporter line)
T2 sequence (Q9NR97 27-1041): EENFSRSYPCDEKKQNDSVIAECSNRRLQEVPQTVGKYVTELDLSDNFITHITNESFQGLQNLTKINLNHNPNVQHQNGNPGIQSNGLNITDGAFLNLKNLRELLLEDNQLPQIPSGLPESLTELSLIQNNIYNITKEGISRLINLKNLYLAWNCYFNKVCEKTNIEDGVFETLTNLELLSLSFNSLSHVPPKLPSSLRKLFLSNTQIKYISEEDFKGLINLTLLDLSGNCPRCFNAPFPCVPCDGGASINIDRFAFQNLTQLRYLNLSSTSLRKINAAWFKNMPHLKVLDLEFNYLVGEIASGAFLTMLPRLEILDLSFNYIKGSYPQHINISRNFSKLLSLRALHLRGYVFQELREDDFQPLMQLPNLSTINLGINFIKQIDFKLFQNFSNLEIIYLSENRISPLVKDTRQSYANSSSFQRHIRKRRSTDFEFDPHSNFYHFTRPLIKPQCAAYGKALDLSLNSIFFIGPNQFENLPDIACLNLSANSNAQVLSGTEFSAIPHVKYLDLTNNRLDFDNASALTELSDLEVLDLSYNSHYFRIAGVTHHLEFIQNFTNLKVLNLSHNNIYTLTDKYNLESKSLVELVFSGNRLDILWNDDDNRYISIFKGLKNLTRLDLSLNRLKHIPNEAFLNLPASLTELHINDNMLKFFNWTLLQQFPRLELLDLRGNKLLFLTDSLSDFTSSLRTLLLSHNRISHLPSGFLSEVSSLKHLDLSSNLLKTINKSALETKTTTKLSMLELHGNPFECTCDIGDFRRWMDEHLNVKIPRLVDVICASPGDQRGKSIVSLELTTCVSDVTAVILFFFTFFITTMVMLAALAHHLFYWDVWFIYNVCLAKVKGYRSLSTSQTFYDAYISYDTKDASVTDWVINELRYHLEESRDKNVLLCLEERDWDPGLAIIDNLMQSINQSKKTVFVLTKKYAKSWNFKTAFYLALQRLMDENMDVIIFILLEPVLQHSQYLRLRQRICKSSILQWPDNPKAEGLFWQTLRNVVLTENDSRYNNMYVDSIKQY
Method: as §1, §2

human TLR9 = molecular target: T3, human TLR9 (Homo sapiens, UniProt Q9NR96); assay: TLR9 inhibition reporter assay (HEK-Blue cells, secreted embryonic alkaline phosphatase reporter)
T3 construct: host or cells: HEK-Blue cells (HEK293-derived reporter line)
T3 sequence (Q9NR96 26-1032): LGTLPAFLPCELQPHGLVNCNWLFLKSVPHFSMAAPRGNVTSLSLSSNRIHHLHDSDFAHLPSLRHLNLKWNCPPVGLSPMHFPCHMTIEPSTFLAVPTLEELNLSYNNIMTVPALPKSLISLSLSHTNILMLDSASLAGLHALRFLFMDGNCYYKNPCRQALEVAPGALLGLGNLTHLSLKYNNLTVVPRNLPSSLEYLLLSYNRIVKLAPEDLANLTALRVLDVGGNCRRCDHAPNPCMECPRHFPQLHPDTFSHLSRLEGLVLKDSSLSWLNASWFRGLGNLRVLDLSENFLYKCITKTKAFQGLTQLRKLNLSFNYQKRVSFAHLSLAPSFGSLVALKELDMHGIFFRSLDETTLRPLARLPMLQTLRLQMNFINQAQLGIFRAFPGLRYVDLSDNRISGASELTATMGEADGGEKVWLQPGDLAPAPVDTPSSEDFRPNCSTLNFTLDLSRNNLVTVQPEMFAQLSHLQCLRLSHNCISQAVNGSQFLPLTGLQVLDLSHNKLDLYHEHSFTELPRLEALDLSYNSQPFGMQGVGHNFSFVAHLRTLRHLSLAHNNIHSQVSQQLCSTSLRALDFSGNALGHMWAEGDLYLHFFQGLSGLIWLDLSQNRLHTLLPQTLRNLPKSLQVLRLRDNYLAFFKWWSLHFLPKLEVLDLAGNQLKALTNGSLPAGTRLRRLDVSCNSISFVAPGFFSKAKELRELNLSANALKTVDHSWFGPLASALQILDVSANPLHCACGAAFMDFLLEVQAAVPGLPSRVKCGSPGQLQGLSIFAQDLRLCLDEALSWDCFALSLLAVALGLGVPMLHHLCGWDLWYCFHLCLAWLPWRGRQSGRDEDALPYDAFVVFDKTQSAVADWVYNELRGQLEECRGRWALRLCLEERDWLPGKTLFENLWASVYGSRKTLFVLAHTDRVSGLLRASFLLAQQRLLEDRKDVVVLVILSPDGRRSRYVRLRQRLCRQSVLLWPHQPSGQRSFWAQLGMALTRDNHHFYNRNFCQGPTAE
Procedure, shortened: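 Agonist-driven SEAP output was measured in HEK-Blue reporter cells carrying human TLR7 (gardiquimod 7.5 μM), TLR8 (R848 15.9 μM) or TLR9 (ODN2006 5 nM). Compounds at 0.05 nM–50 μM final were added 30 min before stimulation at room temperature. After 22 h at 37 °C, percent inhibition was taken against agonist/DMSO wells and a reference inhibitor.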

[1] = HEK-Blue cells overexpressing human TLR9, stimulated with ODN2006 5 nM, 22 hour incubation, reporter readout
[2] = HEK-Blue cells overexpressing human TLR9, stimulated with ODN2006 5 nM, read-out: TLR 9 IC50

SMILES | IC50 (human TLR7) [µM] | IC50 (human TLR8) [µM] | IC50 (human TLR9; [1]) [µM] | IC50 (human TLR9; [2]) [µM] | IC50 (human TLR9) [µM] | IC50 (human TLR9; HEK-Blue human TLR9 reporter cells) [µM]
COc1ccc(-c2nc3cc(C4CCN(C5CCN(C6CC6)CC5)CC4)ccc3n2CC(F)F)cc1OC [Example 39, 5-(1′-cyclopropyl-[1,4′-bipiperidin]-4-yl)-1-(2,2-difluoroethyl)-2-(3,4-dimethoxyphenyl)-1H-benzo[d]imidazole] | 6.4 | 30 | 0.59 | 0.59 |  | 
COc1ccc(-c2nc3c(C)cc(C4CCN(C5CCNCC5)CC4)cc3[nH]2)cc1OC [Example 13, 6-([1,4′-bipiperidin]-4-yl)-2-(3,4-dimethoxyphenyl)-4-methyl-1H-benzo[d]imidazole tris(2,2,2-trifluoroacetate)] | > 50 | > 50 | 0.62 | 0.617 |  | 
COc1ccc(-c2nc3cc(C4CCN(C5CCN(C6CC6)CC5)CC4)ccc3n2C)cc1OC [Example 35, 5-(1′-cyclopropyl-[1,4′-bipiperidin]-4-yl)-2-(3,4-dimethoxyphenyl)-1-methyl-1H-benzo[d]imidazole] |  | > 50 | 0.85 | 0.852 |  | 
COc1cc(-c2nc3c(C)cc(C4CCN(C5CC6CCC(C5)N6CC(C)C)CC4)cc3n2C)cn2ncnc12 (centres unmarked) [Example 126, 6-(6-(1-(8-isobutyl-8-azabicyclo[3.2.1]octan-3-yl)piperidin-4-yl)-1,4-dimethyl-1H-benzo[d]imidazol-2-yl)-8-methoxy-[1,2,4]triazolo[1,5-a]pyridine] |  | 4.5 | 0.59 | 0.588 |  | 
Cn1c(-c2ccc(S(C)(=O)=O)cc2)nc2ccc(C3CCN(C4CC5CCC(C4)N5C4COC4)CC3)c(F)c21 (centres unmarked) [Example 272, 7-fluoro-1-methyl-2-(4-(methylsulfonyl)phenyl)-6-(1-(8-(oxetan-3-yl)-8-azabicyclo[3.2.1]octan-3-yl)piperidin-4-yl)-1H-benzo[d]imidazole] |  | > 50 |  | 0.6 |  | 
Cn1c(-c2ccc(S(C)(=O)=O)cc2)nc2c(F)cc(C3CCN(C4CC5CCC(C4)N5C4COC4)CC3)cc21 (centres unmarked) [Example 287, 4-fluoro-1-methyl-2-(4-(methylsulfonyl)phenyl)-6-(1-(8-(oxetan-3-yl)-8-azabicyclo[3.2.1]octan-3-yl)piperidin-4-yl)-1H-benzo[d]imidazole] |  | > 50 |  | 0.104 |  | 0.1

The remaining lines, values ahead:

IC50 (human TLR7) [µM] | IC50 (human TLR8) [µM] | IC50 (human TLR9; [1]) [µM] | IC50 (human TLR9; [2]) [µM] | IC50 (human TLR9) [µM] | IC50 (human TLR9; HEK-Blue human TLR9 reporter cells) [µM] | SMILES
> 50 | > 50 |  | 0.238 | 0.24 |  | CS(=O)(=O)c1ccc(-c2nc3ccc(C4CCN(C5CCN(C6CC6)CC5)CC4)c(F)c3[nH]2)cc1 [Example 178, 6-(1′-cyclopropyl-[1,4′-bipiperidin]-4-yl)-7-fluoro-2-(4-(methylsulfonyl)phenyl)-1H-benzo[d]imidazole]
 | 7.3 | 0.056 | 0.056 |  |  | Cc1cc(-c2ccc(CN3CCC(N4CCCC4)CC3)c(F)c2)cc2c1nc(-c1ccc(S(C)(=O)=O)cc1)n2C [Example 387, 6-(3-fluoro-4-((4-(pyrrolidin-1-yl)piperidin-1-yl)methyl)phenyl)-1,4-dimethyl-2-(4-(methylsulfonyl)phenyl)-1H-benzo[d]imidazole]
2.6 |  | 0.086 | 0.086 |  |  | Cc1cc(-c2ccc(CN3C[C@@H]4CN(C(C)C)C[C@@H]4C3)cc2)cc2c1nc(-c1ccc(S(C)(=O)=O)cc1)n2C [Example 397, 6-(4-((cis-5-isopropylhexahydropyrrolo[3,4-c]pyrrol-2(1H)-yl)methyl)phenyl)-1,4-dimethyl-2-(4-(methylsulfonyl)phenyl)-1H-benzo[d]imidazole]
1.7 |  | 0.13 | 0.128 |  |  | Cc1cc(-c2ccc(CN3C[C@H]4CN(C)C[C@H]4C3)cc2)cc2c1nc(-c1ccc(S(C)(=O)=O)cc1)n2C [Example 398, 1,4-dimethyl-6-(4-((cis-5-methylhexahydropyrrolo[3,4-c]pyrrol-2(1H)-yl)methyl)phenyl)-2-(4-(methylsulfonyl)phenyl)-1H-benzo[d]imidazole]
